Test results reported in ChEMBL document CHEMBL3352261, “Discovery of inhibitors of the mitotic kinase TTK based on N-(3-(3-sulfamoylphenyl)-1H-indazol-5-yl)-acetamides and carboxamides” (Bioorg Med Chem, 2014).

Assays:
[1] = target: T1, Dual specificity protein kinase TTK (Homo sapiens, UniProt P33981); experiment: Inhibition of SUMO-tagged human TTK (1-275 residues) compound pre-incubated for 15 mins prior ATP addition by MBP-based assay
T1 sequence (P33981 whole entry): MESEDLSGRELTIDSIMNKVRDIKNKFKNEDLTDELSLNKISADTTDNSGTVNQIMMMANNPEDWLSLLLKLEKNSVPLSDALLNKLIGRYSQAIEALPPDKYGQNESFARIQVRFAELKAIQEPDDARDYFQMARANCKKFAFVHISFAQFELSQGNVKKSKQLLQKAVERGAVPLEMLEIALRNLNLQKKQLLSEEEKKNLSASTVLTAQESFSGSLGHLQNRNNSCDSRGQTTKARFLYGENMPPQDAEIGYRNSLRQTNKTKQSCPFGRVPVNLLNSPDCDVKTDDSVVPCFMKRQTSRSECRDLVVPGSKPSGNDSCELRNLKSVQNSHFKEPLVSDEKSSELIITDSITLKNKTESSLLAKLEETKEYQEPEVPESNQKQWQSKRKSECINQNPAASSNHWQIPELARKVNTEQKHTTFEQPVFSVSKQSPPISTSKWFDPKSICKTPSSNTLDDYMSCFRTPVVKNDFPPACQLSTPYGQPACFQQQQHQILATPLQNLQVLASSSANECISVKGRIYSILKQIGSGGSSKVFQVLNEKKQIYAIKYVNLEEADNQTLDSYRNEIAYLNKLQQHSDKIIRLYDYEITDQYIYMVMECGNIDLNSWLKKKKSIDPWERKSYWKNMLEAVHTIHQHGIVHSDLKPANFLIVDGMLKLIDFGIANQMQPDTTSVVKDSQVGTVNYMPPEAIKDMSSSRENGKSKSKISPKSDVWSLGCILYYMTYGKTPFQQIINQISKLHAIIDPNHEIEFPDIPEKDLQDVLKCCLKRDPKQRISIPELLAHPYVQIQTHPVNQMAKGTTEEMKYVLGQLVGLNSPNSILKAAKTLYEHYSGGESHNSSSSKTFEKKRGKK

[2] = target: T1, Dual specificity protein kinase TTK; experiment: Inhibition of GST-fused full length human TTK compound pre-incubated for 15 mins prior ATP addition by MBP-based assay
[3] = Growth inhibition of human HCT116 cells after 5 days by SRB assay; type: functional; conditions: HCT-116, 120 h
MDA-MB-468 = experiment: Growth inhibition of human MDA-MB-468 cells after 5 days by SRB assay; type: functional; conditions: MDA-MB-468, 120 h
A549 = experiment: Growth inhibition of human A549 cells after 5 days by SRB assay; type: functional; conditions: A549, 120 h

SMILES	IC50 [1] [nM]	IC50 [2] [nM]	GI50 [3] [nM]	GI50 (MDA-MB-468) [nM]	GI50 (A549) [nM]
NS(=O)(=O)c1cccc(-c2n[nH]c3cc(-c4ccccc4)ccc23)c1	5400				
Oc1c2ccccc2c2c3c(cccc13)N=N2 [SP-600125]		2500			
CCc1cccc(CC)c1CC(=O)Nc1ccc2[nH]nc(-c3cccc(S(N)(=O)=O)c3)c2c1	17		180		
NCc1cccc(-c2n[nH]c3cccc(Cl)c23)c1		> 50000			
NS(=O)(=O)c1cccc(-c2n[nH]c3ccc(NC(=O)C(c4ccccc4)N4CCCCC4)cc23)c1 (racemic)	10		270	690	400
COc1cc(N2CCC(O)CC2)ccc1Nc1nc(Nc2ccccc2S(=O)(=O)C(C)C)c2cc[nH]c2n1		370			
NS(=O)(=O)c1cccc(-c2n[nH]c3ccc(NC(=O)Nc4ccccc4)cc23)c1	390		41000		
NS(=O)(=O)c1cccc(-c2n[nH]c3ccc(C(=O)NCc4cccs4)cc23)c1	33		1800		
CN(Cc1ccccc1)C(=O)c1ccc2[nH]nc(-c3cccc(S(N)(=O)=O)c3)c2c1	250		180		
CCOC(C(=O)Nc1ccc2[nH]nc(-c3cccc(S(N)(=O)=O)c3)c2c1)c1ccccc1 (racemic)	14		400	1400	800
NS(=O)(=O)c1cccc(-c2n[nH]c3ccc(NC(=O)C4(c5ccccc5)CC4)cc23)c1	310		7300		
NS(=O)(=O)c1ccc(-c2n[nH]c3cccc(Cl)c23)cc1		18000			
Cc1ccccc1CC(=O)Nc1ccc2[nH]nc(-c3cccc(S(N)(=O)=O)c3)c2c1	25		1800		
NS(=O)(=O)c1cccc(-c2n[nH]c3ccccc23)c1	1600	2600			
COc1ccc2[nH]nc(-c3cccc(S(N)(=O)=O)c3)c2c1	600				
CN(C)[C@@H](C(=O)Nc1ccc2[nH]nc(-c3cccc(S(N)(=O)=O)c3)c2c1)c1ccccc1	15		1100	1300	3400
CN(C)[C@H](C(=O)Nc1ccc2[nH]nc(-c3cccc(S(N)(=O)=O)c3)c2c1)c1ccccc1	11		520	840	830
NC(=O)c1cccc(-c2n[nH]c3cccc(Cl)c23)c1		17000			
NS(=O)(=O)c1cccc(-c2n[nH]c3cc(NC(=O)c4cccs4)ccc23)c1	4300				
NS(=O)(=O)c1cccc(-c2n[nH]c3ccc(NC(=O)Cc4ccncc4)cc23)c1	340		50000		

SMILES	IC50 [1] [nM]	IC50 [2] [nM]	GI50 [3] [nM]	GI50 (MDA-MB-468) [nM]	GI50 (A549) [nM]
CN(C)C(C(=O)Nc1ccc2[nH]nc(-c3cccc(S(N)(=O)=O)c3)c2c1)c1ccccc1 (racemic)	12		660	1400	1700
NS(=O)(=O)c1cccc(-c2n[nH]c3cccc(-c4c(F)cccc4F)c23)c1	1400				
NS(=O)(=O)c1cccc(-c2n[nH]c3ccc(C(=O)NC(c4ccccc4)C4CC4)cc23)c1 (racemic)	16				
NS(=O)(=O)c1cccc(-c2n[nH]c3ccc(OCc4ccccc4)cc23)c1	580				
NS(=O)(=O)c1cccc(-c2n[nH]c3ccc(NS(=O)(=O)c4cccs4)cc23)c1	340		3400		
NS(=O)(=O)c1cccc(-c2n[nH]c3ccc(C(=O)NC(c4ccccc4)C4CCCCC4)cc23)c1 (racemic)	47		810		
NS(=O)(=O)c1cccc(-c2n[nH]c3ccc(NC(=O)C(c4ccccc4)C4CCCC4)cc23)c1 (racemic)	53		630		
NS(=O)(=O)c1cccc(-c2n[nH]c3ccc(NC(=O)c4cccs4)cc23)c1	280				
NS(=O)(=O)c1cccc(-c2n[nH]c3ccc(C(=O)NC(c4ccsc4)C4CC4)cc23)c1 (racemic)	4		610		
NS(=O)(=O)c1cccc(-c2n[nH]c3ccc(NC(=O)CCc4ccccc4)cc23)c1	980		> 50000		
O=Cc1ccc2c(-c3cccnc3)n[nH]c2c1		12000			
CC(=O)Nc1ccc2[nH]nc(-c3cccc(S(N)(=O)=O)c3)c2c1	640				
COC(C(=O)Nc1ccc2[nH]nc(-c3cccc(S(N)(=O)=O)c3)c2c1)c1ccccc1 (racemic)	26		1060	2200	2500
NS(=O)(=O)c1cccc(-c2n[nH]c3ccc(NS(=O)(=O)Nc4ccccc4)cc23)c1	710		6890		
CC(C)C(C(=O)Nc1ccc2[nH]nc(-c3cccc(S(N)(=O)=O)c3)c2c1)c1ccccc1 (racemic)	46				
N#Cc1ccc2c(/C=C/c3ccncc3)n[nH]c2c1		5000			
CCc1cccc(CC)c1CNC(=O)c1ccc2[nH]nc(-c3cccc(S(N)(=O)=O)c3)c2c1	80		700		
CCc1cccc(CC)c1NS(=O)(=O)Nc1ccc2[nH]nc(-c3cccc(S(N)(=O)=O)c3)c2c1	2600		50000		
CCc1cccc(CC)c1NC(=O)N(C)c1ccc2[nH]nc(-c3cccc(S(N)(=O)=O)c3)c2c1	> 50000		> 50000		
NS(=O)(=O)c1cccc(-c2n[nH]c3ccc(OCCc4cccs4)cc23)c1	380		750		

SMILES	IC50 [1] [nM]	IC50 [2] [nM]	GI50 [3] [nM]	GI50 (MDA-MB-468) [nM]	GI50 (A549) [nM]
Cc1ccccc1CNC(=O)c1ccc2[nH]nc(-c3cccc(S(N)(=O)=O)c3)c2c1	18		1800		
NS(=O)(=O)c1cccc(-c2n[nH]c3ccc(C(=O)NCc4ccccc4)cc23)c1	90		1800		
NS(=O)(=O)c1cccc(-c2n[nH]c3ccc(NC(=O)C(c4ccccc4)C4CCCCC4)cc23)c1 (racemic)	61		430		
NS(=O)(=O)c1cccc(-c2n[nH]c3ccc(CNC(=O)c4ccccc4)cc23)c1	550		700		
CNC(=O)c1ccc2c(-c3cccc(S(N)(=O)=O)c3)n[nH]c2c1	11000				
CC(=O)Nc1ccc2c(-c3cccc(S(N)(=O)=O)c3)n[nH]c2c1	18000				
CCC(C(=O)Nc1ccc2[nH]nc(-c3cccc(S(N)(=O)=O)c3)c2c1)c1ccccc1 (racemic)	24		1300		
Cc1cccc(CS(=O)(=O)Nc2ccc3[nH]nc(-c4cccc(S(N)(=O)=O)c4)c3c2)c1	330		28000		
NS(=O)(=O)c1cccc(-c2n[nH]c3ccc(NC(=O)C(c4ccccc4)N4CCCC4)cc23)c1 (racemic)	8.9		110	350	230
NS(=O)(=O)c1cccc(-c2n[nH]c3cccc(Cl)c23)c1	1900	1800			
CO[C@H](C(=O)Nc1ccc2[nH]nc(-c3cccc(S(N)(=O)=O)c3)c2c1)c1ccccc1	26		800	2200	3600
NS(=O)(=O)c1cccc(-c2n[nH]c3ccc(NC(=O)Cc4cccs4)cc23)c1	16		2900		
COc1cccc2[nH]nc(-c3cccc(S(N)(=O)=O)c3)c12	2300				
NS(=O)(=O)c1cccc(-c2n[nH]c3ccc(NC(=O)Cc4ccccc4)cc23)c1	39		21000		
Cc1ccccc1NC(=O)Cc1ccc2[nH]nc(-c3cccc(S(N)(=O)=O)c3)c2c1	> 5000		> 50000		
NS(=O)(=O)c1cccc(-c2n[nH]c3ccc(NC(=O)Cc4ccccn4)cc23)c1	90		6890		
NS(=O)(=O)c1cccc(-c2n[nH]c3ccc(C(=O)NC4(c5ccccc5)CC4)cc23)c1	35		3300		
CO[C@@H](C(=O)Nc1ccc2[nH]nc(-c3cccc(S(N)(=O)=O)c3)c2c1)c1ccccc1	30		850	3200	2400
NS(=O)(=O)c1cccc(-c2n[nH]c3ccc(-c4ccccc4)cc23)c1	4300				
